Reference: US7163672B2, “Pharmaceutical aerosol formulation” (AstraZeneca AB, priority 2000, dated 2007)

Assay: Surface energy by inverse gas chromatography (IGC)
Assay type: physicochemical
Details: 35° C., powder
Experimental: Surface energy of the drug and the drug surfactant particles was measured by inverse gas chromatography. A silanised U-shaped column (3 mm internal diameter, 30 cm length) was packed with approximately 400 mg of the test powder and dried under nitrogen for 24 hours at 50° C. The powder bed was then allowed to settle for 24 hours at 35° C. (temperature used during the experiments) under nitrogen. The test probes used were: hexane, heptane, octane, chloroform, CCl4, benzene, acetone, tetrahydrofuran, ethyl acetate and diethyl ether. One ml of air containing a minute concentration of each gaseous probe was injected into the column and the retention time measured.

γs^D (n = 3) [mJ/m²] | Compound
52.3 | CCC(=O)OCC(=O)[C@@]1(OC(=O)CC)[C@@H](C)C[C@H]2[C@@H]3CCC4=CC(=O)C=C[C@]4(C)[C@@]3(Cl)[C@@H](O)C[C@@]21C [BDP, Beclomethasone dipropionate]
43.3 | Salbutamol sulphate
